Data published in patent US9833497B2, “Human originated EGF domain proteins and use of the same” (CHENGDU SOURCEBIO LIMITED-LIABILITY COMPANY, priority 2013, dated 2017).

Columns and labels:
Format in all cases: cell-based
[1] = system: Moraxella catarrhalis; assay: MIC against Gram-negative bacteria: Moraxella catarrhalis; conditions: 5×10^5 CFU/mL; for MIC M. catarrhalis: two-fold serial dilution
How it was run: (§1)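 Bacteria grown in LB at 37° C with shaking to McFarland 0.5, pelleted and resuspended in fresh LB, then seeded at 5×10^5 CFU/mL per well. Purified recombinant human EGF domain proteins were two-fold serially diluted in triplicate and plates shaken at 37° C, 175 rpm. MIC is the lowest protein concentration with no bacterial growth.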

[2] = system: Proteus vulgaris; assay: MIC against Gram-negative bacteria: Proteus vulgaris; conditions: 5×10^5 CFU/mL; for MIC P. vulgaris: two-fold serial dilution
How it was run: as §1

[3] = system: E. coli BL21; assay: MIC against Gram-negative bacteria: E. coli BL21; conditions: 5×10^5 CFU/mL; for MIC E. coli BL21: two-fold serial dilution
How it was run: as §1

[4] = system: Aeromonas hydrophila; assay: MIC against Gram-negative bacteria: Aeromonas hydrophila; conditions: 5×10^5 CFU/mL; for MIC A. hydrophila: two-fold serial dilution
How it was run: as §1

[5] = system: Klebsiella pneumonia; assay: MIC against Gram-negative bacteria: Klebsiella pneumonia; conditions: 5×10^5 CFU/mL; for MIC K. pneumonia: two-fold serial dilution
How it was run: as §1

[6] = system: Citrobacter diversus; assay: MIC against Gram-negative bacteria: Citrobacter diversus; conditions: 5×10^5 CFU/mL; for MIC C. diversus: two-fold serial dilution
How it was run: as §1

[7] = system: E. coli DH5α; assay: Antibacterial activity: MIC and growth curve against E. coli DH5α in 96-well plate; conditions: minimal inhibitory concentration against E. coli DH5α; 96-well plate, 5×10^5 CFU/mL, 37° C., judged after 8 h
How it was run: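 Log-phase bacteria (OD600 ~0.5) resuspended in LB at 5×10^5 CFU/mL, exposed to recombinant protein at 50, 25, 12.5 μg/mL final in triplicate, 37 °C shaking at 175 rpm. OD600 read every 30 min; MIC is lowest concentration showing no growth.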

[8] = system: Proteus mirabilis; assay: MIC against Gram-negative bacteria: Proteus mirabilis; conditions: 5×10^5 CFU/mL; for MIC P. mirabilis: two-fold serial dilution
How it was run: as §1

[9] = system: Serratia marcescens; assay: MIC against Gram-negative bacteria: Serratia marcescens; conditions: 5×10^5 CFU/mL; for MIC S. marcescens: two-fold serial dilution
How it was run: as §1

[10] = system: Enterobacter cloacae; assay: MIC against Gram-negative bacteria: Enterobacter cloacae; conditions: 5×10^5 CFU/mL; for MIC E. cloacae: two-fold serial dilution
How it was run: as §1

[11] = system: Pseudomonas aeruginosa; assay: MIC against Gram-negative bacteria: Pseudomonas aeruginosa; conditions: 5×10^5 CFU/mL; for MIC P. aeruginosa: two-fold serial dilution
How it was run: as §1

[12] = E. coli BL21, 10 h cultivation at 37° C.
[13] = Moraxella catarrhalis, 96-well plate, 37° C., 10 h
[14] = Proteus vulgaris, 96-well plate, 37° C., 10 h
[15] = E. coli BL21, 96-well plate, 37° C., 10 h
[16] = Aeromonas hydrophila, 96-well plate, 37° C., 10 h
[17] = Klebsiella pneumonia, 96-well plate, 37° C., 10 h
[18] = Citrobacter diversus, 96-well plate, 37° C., 10 h
[19] = Proteus mirabilis, 96-well plate, 37° C., 10 h
[20] = Serratia marcescens, 96-well plate, 37° C., 10 h
[21] = Enterobacter cloacae, 96-well plate, 37° C., 10 h
[22] = Pseudomonas aeruginosa, 96-well plate, 37° C., 10 h

PRT532 (CWCSALGSYQMPCSSVTGQCECRPGVTGQRCDRCLSGAYDFPHCQGSSSACDP; listed as Homo sapiens)
MIC against M. catarrhalis ([1]; 96-well plate, 37° C., 10 h): 50 µg/mL | MIC against P. vulgaris ([2]; 96-well plate, 37° C., 10 h): 50 µg/mL | MIC against E. coli BL21 ([3]; 96-well plate, 37° C., 10 h): 50 µg/mL | MIC against A. hydrophila ([4]; 96-well plate, 37° C., 10 h): 12.5 µg/mL | MIC against K. pneumonia ([5]; 96-well plate, 37° C., 10 h): 12.5 µg/mL | MIC against C. diversus ([6]; 96-well plate, 37° C., 10 h): 12.5 µg/mL | MIC [7]: 12.5 µg/mL | MIC against P. mirabilis ([8]; 96-well plate, 37° C., 10 h): 12.5 µg/mL | MIC against S. marcescens ([9]; 96-well plate, 37° C., 10 h): 12.5 µg/mL | MIC against E. cloacae ([10]; 96-well plate, 37° C., 10 h): 12.5 µg/mL | MIC against P. aeruginosa ([11]; 96-well plate, 37° C., 10 h): 12.5 µg/mL

PRT1399 (ARVQCPDQCSGHGTYLPDTGLCSCDPNWMGPDCS; listed as Homo sapiens)
MIC against M. catarrhalis ([1]; Moraxella catarrhalis, 10 h cultivation at 37° C.): 12.5 µg/mL | MIC against P. vulgaris ([2]; Proteus vulgaris, 10 h cultivation at 37° C.): 12.5 µg/mL | MIC against E. coli BL21 [3, 12]: 12.5 µg/mL | MIC against A. hydrophila ([4]; Aeromonas hydrophila, 10 h cultivation at 37° C.): 12.5 µg/mL | MIC against K. pneumonia ([5]; Klebsiella pneumonia, 10 h cultivation at 37° C.): 12.5 µg/mL | MIC against C. diversus ([6]; Citrobacter diversus, 10 h cultivation at 37° C.): 25 µg/mL | MIC [7]: 12.5 µg/mL | MIC against P. mirabilis ([8]; Proteus mirabilis, 10 h cultivation at 37° C.): 25 µg/mL | MIC against S. marcescens ([9]; Serratia marcescens, 10 h cultivation at 37° C.): 25 µg/mL | MIC against E. cloacae ([10]; Enterobacter cloacae, 10 h cultivation at 37° C.): 25 µg/mL | MIC against P. aeruginosa ([11]; Pseudomonas aeruginosa, 10 h cultivation at 37° C.): 12.5 µg/mL

PRT840 (GSARCGSGGPGSCPVPQECVPQDGAAGAGLCRCPQGWAGPHCR; listed as Homo sapiens)
MIC (μg/mL) M. catarrhalis ([1]; M. catarrhalis, 10 h cultivation at 37° C.): 25 µg/mL | MIC (μg/mL) P. vulgaris ([2]; P. vulgaris, 10 h cultivation at 37° C.): 25 µg/mL | MIC (μg/mL) E. coli BL21 [3, 12]: 12.5 µg/mL | MIC (μg/mL) A. hydrophila ([4]; A. hydrophila, 10 h cultivation at 37° C.): 25 µg/mL | MIC (μg/mL) K. pneumonia ([5]; K. pneumonia, 10 h cultivation at 37° C.): 25 µg/mL | MIC (μg/mL) C. diversus ([6]; C. diversus, 10 h cultivation at 37° C.): 12.5 µg/mL | MIC [7]: 25 µg/mL | MIC (μg/mL) P. mirabilis ([8]; P. mirabilis, 10 h cultivation at 37° C.): 12.5 µg/mL | MIC (μg/mL) S. marcescens ([9]; S. marcescens, 10 h cultivation at 37° C.): 25 µg/mL | MIC (μg/mL) E. cloacae ([10]; E. cloacae, 10 h cultivation at 37° C.): 12.5 µg/mL | MIC (μg/mL) P. aeruginosa ([11]; P. aeruginosa, 10 h cultivation at 37° C.): 25 µg/mL

PRT1081 (APNPCEANGGQGPCSHLCLINYNRTVSCACPHLMKLHKDNTTCY; listed as Homo sapiens)
MIC M. catarrhalis ([1]; 10 h cultivation at 37° C.): 12.5 µg/mL | MIC P. vulgaris ([2]; 10 h cultivation at 37° C.): 50 µg/mL | MIC E. coli BL21 ([3]; 10 h cultivation at 37° C.): 12.5 µg/mL | MIC A. hydrophila ([4]; 10 h cultivation at 37° C.): 12.5 µg/mL | MIC K. pneumonia ([5]; 10 h cultivation at 37° C.): 12.5 µg/mL | MIC C. diversus ([6]; 10 h cultivation at 37° C.): 50 µg/mL | MIC [7]: 25 µg/mL | MIC P. mirabilis ([8]; 10 h cultivation at 37° C.): 25 µg/mL | MIC S. marcescens ([9]; 10 h cultivation at 37° C.): 12.5 µg/mL | MIC E. cloacae ([10]; 10 h cultivation at 37° C.): 50 µg/mL | MIC P. aeruginosa ([11]; 10 h cultivation at 37° C.): 50 µg/mL

PRT1313 (VADLCQDGHGGCSEHANCSQVGTMVTCTCLPDYEGDGWSCR; listed as Homo sapiens)
MIC against M. catarrhalis [1, 13]: 12.5 µg/mL | MIC against P. vulgaris [2, 14]: 12.5 µg/mL | MIC against E. coli BL21 [3, 15]: 25 µg/mL | MIC against A. hydrophila [4, 16]: 25 µg/mL | MIC against K. pneumonia [5, 17]: 25 µg/mL | MIC against C. diversus [6, 18]: 50 µg/mL | MIC [7]: 12.5 µg/mL | MIC against P. mirabilis [8, 19]: 50 µg/mL | MIC against S. marcescens [9, 20]: 50 µg/mL | MIC against E. cloacae [10, 21]: 12.5 µg/mL | MIC against P. aeruginosa [11, 22]: 50 µg/mL

PRT1135 (NLDDCASRPCQRGARCRDRVHDFDCLCPSGYGGKTCE; listed as Homo sapiens)
MIC M. catarrhalis ([1]; 10 h cultivation at 37° C.): 25 µg/mL | MIC P. vulgaris ([2]; 10 h cultivation at 37° C.): 25 µg/mL | MIC E. coli BL21 ([3]; 10 h cultivation at 37° C.): 50 µg/mL | MIC A. hydrophila ([4]; 10 h cultivation at 37° C.): 25 µg/mL | MIC K. pneumonia ([5]; 10 h cultivation at 37° C.): 50 µg/mL | MIC C. diversus ([6]; 10 h cultivation at 37° C.): 12.5 µg/mL | MIC [7]: 25 µg/mL | MIC P. mirabilis ([8]; 10 h cultivation at 37° C.): 50 µg/mL | MIC S. marcescens ([9]; 10 h cultivation at 37° C.): 12.5 µg/mL | MIC E. cloacae ([10]; 10 h cultivation at 37° C.): 25 µg/mL | MIC P. aeruginosa ([11]; 10 h cultivation at 37° C.): 100 µg/mL

PRT1318 (DCTQCPGGFSNPCYGKGNCSDGIQGNGACLCFPDYKGIACH; listed as Homo sapiens)
MIC against M. catarrhalis [1, 13]: 12.5 µg/mL | MIC against P. vulgaris [2, 14]: 50 µg/mL | MIC against E. coli BL21 [3, 15]: 12.5 µg/mL | MIC against A. hydrophila [4, 16]: 12.5 µg/mL | MIC against K. pneumonia [5, 17]: 50 µg/mL | MIC against C. diversus [6, 18]: 50 µg/mL | MIC [7]: 25 µg/mL | MIC against P. mirabilis [8, 19]: 25 µg/mL | MIC against S. marcescens [9, 20]: 25 µg/mL | MIC against E. cloacae [10, 21]: 25 µg/mL | MIC against P. aeruginosa [11, 22]: 25 µg/mL
